Measured values published in patent US4376858A, “2-4-Diamino-5-methyl-6-[(3,4,5-trimethoxyanilino)methyl]quinazoline salts” (Warner Lambert Company, priority 1982, dated 1983).
Structures can show the parent of a compound that is named as a salt.

Tests used:
[1] = Solubility of prepared 2,4-diamino-5-methyl-6-[(3,4,5-trimethoxyanilino)methyl]quinazoline salts in water; type: physicochemical; details: Table II, Method B: saturated 5.0 ml H2O overnight, filtrate diluted with 0.01 N HCl, 1440 min
bacteria = details: reported in Great Britain Patent Specification No. 1,345,502; cited from earlier work
malaria = details: reported in Great Britain Patent Specification No. 1,345,502; cited from earlier work
neoplasms = details: Biochemical Pharmacology 28, 1983-1987; Cancer Research 39, 293-304; cited from earlier work
[2] = Solubility of prepared 2,4-diamino-5-methyl-6-[(3,4,5-trimethoxyanilino)methyl]quinazoline salts in water; type: physicochemical; details: for Solubility in water: Table II, Method A: saturated 2.0 ml H2O overnight, filtrate diluted with methanol, 1440 min; for Filtrate pH / Solubility: Table III, Prepared Salt; for water solubility (in words): qualitative conclusion from Tables I and II
Protocol: Method A: Saturated 2.0 ml H2 O overnight, 0.5 ml of filtrate diluted to 10.0 ml with methanol, added 1 drop of 6 N KOH to UV cell.

[3] = Solubility of the base 2,4-diamino-5-methyl-6-[(3,4,5-trimethoxyanilino)methyl]quinazoline in aqueous acids (shake-out); type: physicochemical; details: for Base Solubility in acid soln.: Table I; for Filtrate pH / Solubility: Table III
[4] = Stability and solid form of the salts; type: physicochemical; details: qualitative
[5] = lines marked *: .05 M acid, 1/1 acid/base
[6] = 0.1 M acid per method (head: 1 M soln.), 0.05 M base, shaken 4-12 hours, UV 321 nm
[7] = acid conc. .06 M, acid/base 1/1
[8] = acid conc. .1 M, acid/base 2/1, * not saturated (isethionic, ethoxyacetic)
[9] = listed as 2,4-diamino-5-methyl-6-[(3,4,5-trimethoxyanilino)methyl]quinazoline glucuronate

**Q.** For `COc1cc(NCc2ccc3nc(N)nc(N)c3c2C)cc(OC)c1OC` [Gluconatete], which Solubility in water [1] is on record?
**A.** 2.55 mg base/ml

**Q.** Which results are given for `COc1cc(NCc2ccc3nc(N)nc(N)c3c2C)cc(OC)c1OC` [Free base, 2,4-diamino-5-methyl-6-[(3,4,5-trimethoxyanilino)methyl]quinazoline]?
**A.** antibacterial activity (bacteria): exhibiting antimalarial and antibacterial activity; antimalarial activity (malaria): exhibiting antimalarial and antibacterial activity; antineoplastic activity (neoplasms): exhibit antineoplastic activity; Solubility in water [1]: 0.1 mg base/ml; Solubility in water [2]: 0.2 mg base/ml

**Q.** With `COc1cc(NCc2ccc3nc(N)nc(N)c3c2C)cc(OC)c1OC` [Methane sulfonic] as the molecule, how does the “Base Solubility in acid soln.” value [3, 5] read?
**A.** 6.49 mg base/ml

**Q.** What about the “Base Solubility in acid soln.” value [3, 6] of the same molecule?
**A.** 9.83 mg base/ml

**Q.** And the “Filtrate pH” value [3, 7]?
**A.** 3.00

**Q.** And the Solubility [3, 7]?
**A.** 6.5 mg base/ml

**Q.** And the Solubility ([3]; acid conc. .1 M, acid/base 1/.9)?
**A.** 8.74 mg base/ml

**Q.** What about the “Filtrate pH” value [2] of the same molecule?
**A.** 5.32

**Q.** What about the Solubility [2] of the same molecule?
**A.** 4.9 mg base/ml

**Q.** With `COc1cc(NCc2ccc3nc(N)nc(N)c3c2C)cc(OC)c1OC` [Isethionate, 2,4-Diamino-5-methyl-6-[(3,4,5-trimethoxyanilino)methyl]quinazoline monoisethionate] as the molecule, how does the “solid form (in words)” value [4] read?
**A.** crystalline

**Q.** What about the “stability (in words)” value [4] of the same molecule?
**A.** stable

**Q.** And the “Base Solubility in acid soln.” value ([3]; lines marked *: .05 M acid, 1/1 acid/base, listed as Isethionic)?
**A.** 17.3 mg base/ml

**Q.** What about the “Base Solubility in acid soln.” value ([3]; 0.1 M acid per method (head: 1 M soln.), 0.05 M base, shaken 4-12 hours, UV 321 nm, listed as Isethionic) of the same molecule?
**A.** 16.3 mg base/ml

**Q.** What about the Solubility ([3]; acid conc. .05 M, acid/base 1/1, * not saturated (isethionic)) of the same molecule?
**A.** 17.34 mg base/ml

**Q.** And the “Filtrate pH” value ([3]; acid conc. .05 M, acid/base 1/1, listed as Isethionic)?
**A.** 3.70

**Q.** And the Solubility [3, 8]?
**A.** 16.33 mg base/ml

**Q.** And the “Filtrate pH” value ([3]; acid conc. .1 M, acid/base 2/1, listed as Isethionic)?
**A.** 1.83

**Q.** And the Solubility in water [1]?
**A.** 24.78 mg base/ml

**Q.** And the Solubility in water [2]?
**A.** 23.93 mg base/ml

**Q.** What about the “Filtrate pH” value ([2]; listed as Isethionic) of the same molecule?
**A.** 5.30

**Q.** What about the Solubility ([2]; listed as Isethionic) of the same molecule?
**A.** 24.8 mg base/ml

**Q.** And the “water solubility (in words)” value [2]?
**A.** highly water soluble

**Q.** With `COc1cc(NCc2ccc3nc(N)nc(N)c3c2C)cc(OC)c1OC` [Ethoxyacetate] as the molecule, how does the “Base Solubility in acid soln.” value ([3]; lines marked *: .05 M acid, 1/1 acid/base, listed as Ethoxyacetic) read?
**A.** 19.7 mg base/ml

**Q.** And the “Base Solubility in acid soln.” value ([3]; 0.1 M acid per method (head: 1 M soln.), 0.05 M base, shaken 4-12 hours, UV 321 nm, listed as Ethoxyacetic)?
**A.** 19.5 mg base/ml

**Q.** And the Solubility ([3]; acid conc. .065 M, acid/base 1/1, * not saturated)?
**A.** 19.7 mg base/ml

**Q.** What about the Solubility [3, 8] of the same molecule?
**A.** 19.5 mg base/ml

**Q.** And the Solubility in water [1]?
**A.** 6.3 mg base/ml

**Q.** And the Solubility ([2]; listed as Ethoxyacetic)?
**A.** 6.3 mg base/ml

**Q.** Which “Base Solubility in acid soln.” value [3, 6] does the source give for `COc1cc(NCc2ccc3nc(N)nc(N)c3c2C)cc(OC)c1OC` [p-Toluene sulfonic] here?
**A.** 2.74 mg base/ml

**Q.** With `COc1cc(NCc2ccc3nc(N)nc(N)c3c2C)cc(OC)c1OC` [N--(Morpholine)ethane-2-sulfonic] as the molecule, how does the “Base Solubility in acid soln.” value [3, 6] read?
**A.** 11.2 mg base/ml

**Q.** For `COc1cc(NCc2ccc3nc(N)nc(N)c3c2C)cc(OC)c1OC` [Hydrochloride], which Solubility in water [2] is on record?
**A.** 3.22 mg base/ml

**Q.** For `COc1cc(NCc2ccc3nc(N)nc(N)c3c2C)cc(OC)c1OC` [3-Hydroxypropyl sulfonate], which Solubility in water [1] is on record?
**A.** 4.73 mg base/ml

**Q.** What does the source list for `COc1cc(NCc2ccc3nc(N)nc(N)c3c2C)cc(OC)c1OC` [Glycolic]?
**A.** Base Solubility in acid soln. [3, 5]: 4.73 mg base/ml; Base Solubility in acid soln. [3, 6]: 4.13 mg base/ml; Filtrate pH ([3]; acid conc. .1 M, acid/base 1/1): 3.28; Solubility ([3]; acid conc. .1 M, acid/base 1/1): 4.73 mg base/ml; Filtrate pH ([3]; acid conc. .1 M, acid/base 2/1): 3.00; Solubility [3, 8]: 4.13 mg base/ml; Filtrate pH [2]: 5.30; Solubility [2]: 2.55 mg base/ml

**Q.** Which Solubility in water [2] does the source give for `COc1cc(NCc2ccc3nc(N)nc(N)c3c2C)cc(OC)c1OC` [Acetate] here?
**A.** 1.72 mg base/ml

**Q.** With `COc1cc(NCc2ccc3nc(N)nc(N)c3c2C)cc(OC)c1OC` [Ethane sulfonate] as the molecule, how does the Solubility in water [1] read?
**A.** 2.64 mg base/ml

**Q.** What does the source list for `COc1cc(NCc2ccc3nc(N)nc(N)c3c2C)cc(OC)c1OC` [Galacturonic]?
**A.** solid form (in words) ([4]; listed as galacturonate): undesirable amorphous form; Base Solubility in acid soln. [3, 6]: 25.1 mg base/ml

**Q.** Which results are given for `COc1cc(NCc2ccc3nc(N)nc(N)c3c2C)cc(OC)c1OC` [Gentisate]?
**A.** Solubility in water [1]: 0.28 mg base/ml; Solubility in water [2]: 1.4-7.06 mg base/ml

**Q.** Which “solid form (in words)” value [4, 9] does the source give for `COc1cc(NCc2ccc3nc(N)nc(N)c3c2C)cc(OC)c1OC` [Glucuronate, 2,4-Diamino-5-methyl-6-[(3,4,5-trimethoxyanilino)methyl]quinazoline D-glucuronate] here?
**A.** powdery rather than crystalline

**Q.** What about the “Base Solubility in acid soln.” value ([3]; 0.1 M acid per method (head: 1 M soln.), 0.05 M base, shaken 4-12 hours, UV 321 nm, listed as Glucuronic) of the same molecule?
**A.** 34.35 mg base/ml

**Q.** And the Solubility in water [1]?
**A.** 109.4 mg base/ml

**Q.** What about the “water solubility (in words)” value [2, 9] of the same molecule?
**A.** higher degree of solubility

**Q.** With `COc1cc(NCc2ccc3nc(N)nc(N)c3c2C)cc(OC)c1OC` [d-Tartaric] as the molecule, how does the “Base Solubility in acid soln.” value [3, 6] read?
**A.** 1.57 mg base/ml

**Q.** For `COc1cc(NCc2ccc3nc(N)nc(N)c3c2C)cc(OC)c1OC` [Gluconic], which “solid form (in words)” value ([4]; listed as gluconate) is on record?
**A.** undesirable amorphous form

**Q.** And the “Base Solubility in acid soln.” value [3, 5]?
**A.** 19.8 mg base/ml

**Q.** With `COc1cc(NCc2ccc3nc(N)nc(N)c3c2C)cc(OC)c1OC` [Lactate] as the molecule, how does the Solubility in water [2] read?
**A.** 4.34 mg base/ml

**Q.** Which “Base Solubility in acid soln.” value ([3]; lines marked *: .05 M acid, 1/1 acid/base, listed as Benzene sulfonic) does the source give for `COc1cc(NCc2ccc3nc(N)nc(N)c3c2C)cc(OC)c1OC` [Benzene sulfonate] here?
**A.** 1.89 mg base/ml

**Q.** And the “Base Solubility in acid soln.” value ([3]; 0.1 M acid per method (head: 1 M soln.), 0.05 M base, shaken 4-12 hours, UV 321 nm, listed as Benzene sulfonic)?
**A.** 7.17 mg base/ml

**Q.** And the Solubility ([3]; acid conc. .05 M, acid/base 1/1, * not saturated (isethionic), listed as Benzene sulfonic)?
**A.** 1.89 mg base/ml

**Q.** What about the “Filtrate pH” value ([3]; acid conc. .05 M, acid/base 1/1, listed as Benzene sulfonic) of the same molecule?
**A.** 2.95

**Q.** And the Solubility ([3]; acid conc. .1 M, acid/base 2/1, * not saturated (isethionic, ethoxyacetic), listed as Benzene sulfonic)?
**A.** 7.17 mg base/ml

**Q.** What about the “Filtrate pH” value ([3]; acid conc. .1 M, acid/base 2/1, listed as Benzene sulfonic) of the same molecule?
**A.** 2.95

**Q.** What about the Solubility in water [1] of the same molecule?
**A.** 1.24 mg base/ml

**Q.** What about the “Filtrate pH” value ([2]; listed as Benzene sulfonic) of the same molecule?
**A.** 4.45

**Q.** What about the Solubility ([2]; listed as Benzene sulfonic) of the same molecule?
**A.** 1.24 mg base/ml
